Data on 21 molecules can be found in patent publication US20220204497A1, “NOVEL COMPOUND HAVING ANTICANCER ACTIVITY, AND METHOD FOR PRODUCING SAME” (MEDICINAL BIOCONVERGENCE RESEARCH CENTER, priority 2019, published 2022).

SMILES strings stand for the structures.

One data set deals with A549 cells. The data set can be described thus: Cell viability by MTT method in A549 cells. It is filed as cell-based. Also noted: concentration or dose not given beside the values. The settings on record: 72 hours treatment.
The next data set concerns the target T1, AIMP2-DX2 (Homo sapiens, UniProt Q13155).
T1 sequence (Q13155 1-251 isoform Q13155-2): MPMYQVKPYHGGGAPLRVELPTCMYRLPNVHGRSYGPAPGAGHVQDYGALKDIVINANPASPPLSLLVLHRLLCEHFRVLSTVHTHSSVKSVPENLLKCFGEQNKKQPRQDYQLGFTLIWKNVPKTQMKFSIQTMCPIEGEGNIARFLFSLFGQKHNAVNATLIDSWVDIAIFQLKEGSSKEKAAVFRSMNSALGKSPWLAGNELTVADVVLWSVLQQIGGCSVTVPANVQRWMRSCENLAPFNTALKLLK
The data set can be described thus: DX2-nanoluciferase assay (DX2 expression change) in transfected A549 cells. The settings on record: inhibitory effect on AIMP2-DX2 expression; for inhibition at 40 µM: A549, 4 h, read-out: DX-Nanoluciferase activity (40 μM), 40 μM, 4 hours treatment, A549 cells transfected with nanoluciferase-DX2.

Description for AIMP2-DX2: After cloning DX2 into a plasmid expressing nanoluciferase, the plasmid was transfected into A549 cells. Transfected cells were seeded 1×10^4 per well in a 96-well plate and stabilized for 12 hours. […] Cell viability was measured by the MTT method after 72 hours of treatment with each concentration of the compound in A549 cells.

As to `Cc1ccc(S(=O)(=O)N[C@@H](CC(C)C)C(=O)N2CCS(=O)(=O)CC2)cc1` [Compound 5, (S)—N-(1-(1,1-dioxidothiomorpholino)-4-methyl-1-oxopentan-2-yl)-4-methylbenzenesulfonamide], in the data set on A549 cells, the “Cell Viability (% inhibition) (A549)” value came to 15.98%. Moreover, the inhibition at 40 µM at AIMP2-DX2 came to 47.4 ± 7.4%.

As for `Cc1ccc(S(=O)(=O)N[C@@H](CC(C)C)C(=O)N2CCC[C@@H]2CO)cc1` [Compound 6, N—((S)-1-((R)-2-(hydroxymethyl)pyrrolidin-1-yl)-4-methyl-1-oxopentan-2-yl)-4-methylbenzenesulfonamide], the “Cell Viability (% inhibition) (A549)” value with A549 cells was found to be 15.98%. Also, at AIMP2-DX2, the inhibition at 40 µM amounted to 39.9 ± 7.4%.

For `Cc1ccc(S(=O)(=O)N[C@@H](CC(C)C)C(=O)Nc2ccc(N3CCC(C)CC3)nc2)cc1` [Compound 9, (S)-4-Methyl-2-(4-methylphenylsulfonamido)-N-(6-(4-methylpiperidin-1-yl)pyridin-3-yl)pentanamide], the “Cell Viability (% inhibition) (A549)” value with A549 cells came to 78.3%. The inhibition at 40 µM at AIMP2-DX2 was found to be 18.3%.

Turning to `Cc1ccc(S(=O)(=O)N[C@@H](CC(C)C)C(=O)Nc2cc(N3CCC(C)CC3)ncn2)cc1` [Compound 10, (S)-4-methyl-2-(4-methylphenylsulfonamido)-N-(6-(4-methylpiperidin-1-yl)pyrimidin-4-yl)pentanamide], in the data set with A549 cells, the “Cell Viability (% inhibition) (A549)” value was 72.7%. For the same molecule, the inhibition at 40 µM at AIMP2-DX2 worked out at 1.5%.

`Cc1ccc(S(=O)(=O)N[C@@H](CC(C)C)C(=O)Nc2ccc(N3CCOCC3)nc2)cc1` [Compound 12, (S)-4-Methyl-2-(4-methylphenylsulfonamido)-N-(6-morpholinopyridin-3-yl)pentanamide]: in the data set on A549 cells, the “Cell Viability (% inhibition) (A549)” value was determined as 23.26%. Moreover, at AIMP2-DX2, the inhibition at 40 µM was 43.8 ± 8.7%.

Regarding `Cc1ccc(S(=O)(=O)N[C@@H](CC(C)C)C(=O)Nc2ccc(N3C[C@@H](C)O[C@@H](C)C3)nc2)cc1` [Compound 13, (S)—N-(6-((2S,6R)-2,6-dimethylmorpholino)pyridin-3-yl)-4-methyl-2-(4-methylphenylsulfonamido)pentanamide], the “Cell Viability (% inhibition) (A549)” value in the data set with A549 cells was 14.99%. For the same molecule, the inhibition at 40 µM on AIMP2-DX2 stood at 51.3 ± 4%.

In the case of `Cc1ccc(S(=O)(=O)N[C@@H](CC(C)C)C(=O)Nc2ccc(N3CCOCC3)c(F)c2)cc1` [Compound 14, (S)—N-(3-fluoro-4-morpholinophenyl)-4-methyl-2-(4-methylphenylsulfonamido)pentanamide], in the data set on A549 cells, the “Cell Viability (% inhibition) (A549)” value came to 29.87 ± 2.48%. For the same molecule, the inhibition at 40 µM on AIMP2-DX2 was determined as 55.6 ± 1.06%.

As to `Cc1ccc(S(=O)(=O)N[C@@H](CC(C)C)C(=O)Nc2ccc(N3CCN(C(=O)OC(C)(C)C)CC3)nc2)cc1` [Compound 16, (S)-tert-butyl 4-(5-(4-methyl-2-(4-methylphenylsulfonamido)pentanamido)pyridin-2-yl)piperazine-1-carboxylate], the “Cell Viability (% inhibition) (A549)” value with A549 cells worked out at 73.5%. For the same molecule, at AIMP2-DX2, the inhibition at 40 µM is 9.8%.

For the molecule `Cc1ccc(S(=O)(=O)N[C@@H](CC(C)C)C(=O)NCCN2CCOCC2)cc1` [Compound 18, (S)-4-methyl-2-(4-methylphenylsulfonamido)-N-(2-morpholinoethyl)pentanamide], in the data set on A549 cells, the “Cell Viability (% inhibition) (A549)” value was determined as 8.7%. Further, the inhibition at 40 µM on AIMP2-DX2 is 14.8%.

With `CC(C)C[C@H](NS(=O)(=O)c1cccc([N+](=O)[O-])c1)C(=O)N1CCOCC1` [Compound 19, (S)—N-(4-methyl-1-morpholino-1-oxopentan-2-yl)-3-nitrobenzenesulfonamide], the “Cell Viability (% inhibition) (A549)” value with A549 cells stood at 22.61%. At AIMP2-DX2, the inhibition at 40 µM came out at 33.8 ± 8.2%.

In the case of `CC(C)C[C@H](NS(=O)(=O)c1cccc(N)c1)C(=O)N1CCOCC1` [Compound 20, (S)-3-amino-N-(4-methyl-1-morpholino-1-oxopentan-2-yl)benzenesulfonamide], the “Cell Viability (% inhibition) (A549)” value with A549 cells was found to be 24.57%. The inhibition at 40 µM at AIMP2-DX2 is 31 ± 9.9%.

Turning to `CC(C)C[C@H](NS(=O)(=O)c1ccc(C(F)(F)F)cc1)C(=O)Nc1ccc(N2CCOCC2)cc1` [Compound 23, (S)-4-methyl-N-(4-morpholinophenyl)-2-(4-(trifluoromethyl)phenylsulfonamido)pentanamide], the “Cell Viability (% inhibition) (A549)” value in the data set on A549 cells turned out to be 64.35%. Besides, the inhibition at 40 µM at AIMP2-DX2 worked out at 24.5 ± 4.4%.

Regarding `CC(C)C[C@H](NS(=O)(=O)c1cccc([N+](=O)[O-])c1)C(=O)Nc1ccc(N2CCOCC2)cc1` [Compound 24, (S)-4-methyl-N-(4-morpholinophenyl)-2-(3-nitrophenylsulfonamido)pentanamide], in the data set with A549 cells, the “Cell Viability (% inhibition) (A549)” value was determined as 18.38 ± 11.76%. For the same molecule, the inhibition at 40 µM at AIMP2-DX2 was found to be 59.4 ± 2.3%.

As for `CC(C)C[C@H](NS(=O)(=O)c1cccc2ccccc12)C(=O)Nc1ccc(N2CCOCC2)cc1` [Compound 25, (S)-4-methyl-N-(4-morpholinophenyl)-2-(naphthalene-1-sulfonamido)pentanamide], the “Cell Viability (% inhibition) (A549)” value in the data set on A549 cells is on record as 38.92 ± 1.69%. In addition, on AIMP2-DX2, the inhibition at 40 µM was 25.5 ± 5.4%.

Consider `CC(C)C[C@H](NS(=O)(=O)c1ccc2ccccc2c1)C(=O)Nc1ccc(N2CCOCC2)cc1` [Compound 26, (S)-4-methyl-N-(4-morpholinophenyl)-2-(naphthalene-2-sulfonamido)pentanamide], for which, in the data set on A549 cells, the “Cell Viability (% inhibition) (A549)” value is given as 5.95 ± 2.15%. Moreover, the inhibition at 40 µM at AIMP2-DX2 is 52.7 ± 10.5%.

For the molecule `CC(C)C[C@H](NC(=O)CCS(=O)(=O)c1ccccc1)C(=O)OCc1ccccc1` [Compound 28, (S)-Benzyl 4-methyl-2-(3-(phenylsulfonyl)propanamido)pentanoate], the “Cell Viability (% inhibition) (A549)” value in the data set with A549 cells stood at 12.43 ± 8.58%. Also, the “DX-Nanoluciferase activity (40 μM)” value on AIMP2-DX2 (40 μM, 4 hours treatment, A549 cells transfected with nanoluciferase-DX2) is listed as 57.4 ± 8.4.

On to `CC(C)C[C@H](NS(=O)(=O)c1cccs1)C(=O)Nc1ccc(N2CCOCC2)cc1` [Compound 30, (S)-4-methyl-N-(4-morpholinophenyl)-2-(thiophene-2-sulfonamido)pentanamide], for which the “Cell Viability (% inhibition) (A549)” value in the data set with A549 cells turned out to be 9.46 ± 9.61%. Moreover, the inhibition at 40 µM on AIMP2-DX2 came out at 23.7 ± 3.1%.

Consider `CC(C)C[C@H](NS(=O)(=O)c1ccc(C(C)C)cc1)C(=O)Nc1ccc(N2CCOCC2)cc1` [Compound 32, (S)-2-(4-isopropylphenylsulfonamido)-4-methyl-N-(4-morpholinophenyl)pentanamide], for which the “Cell Viability (% inhibition) (A549)” value with A549 cells stood at 20.27 ± 5.87%. The inhibition at 40 µM on AIMP2-DX2 stood at 25.8 ± 2.5%.

Regarding `CC(C)C[C@H](NS(=O)(=O)c1ccc(OCc2ccccc2)cc1)C(=O)N1CCOCCOCCOCC1` [Compound 34, (S)-4-(benzyloxy)-N-(4-methyl-1-oxo-1-(1,4,7-trioxa-10-azacyclododecan-10-yl)pentan-2-yl)benzenesulfonamide], the “Cell Viability (% inhibition) (A549)” value in the data set with A549 cells is 38.82 ± 5.12%. Moreover, at AIMP2-DX2, the inhibition at 40 µM was found to be 34.4 ± 0.91%.

Consider `CC(C)C[C@H](NS(=O)(=O)c1ccc(O)cc1)C(=O)N1CCOCCOCCOCC1` [Compound 35, (S)-4-hydroxy-N-(4-methyl-1-oxo-1-(1,4,7-trioxa-10-azacyclododecan-10-yl)pentan-2-yl)benzenesulfonamide], for which, in the data set with A549 cells, the “Cell Viability (% inhibition) (A549)” value is reported as −1.97 ± 14.7%. Besides, the inhibition at 40 µM at AIMP2-DX2 amounted to 41.9 ± 1.66%.

Take `CC(C)C[C@H](NS(=O)(=O)c1ccc(C(=O)OCc2ccccc2)cc1)C(=O)N1CCOCCOCCOCC1` [Compound 36, (S)-benzyl 4-(N-(4-methyl-1-oxo-1-(1,4,7-trioxa-10-azacyclododecan-10-yl)pentan-2-yl)sulfamoyl)benzoate]: the “Cell Viability (% inhibition) (A549)” value in the data set on A549 cells was 64.40 ± 2.96%. Further, the inhibition at 40 µM on AIMP2-DX2 came to 36.8 ± 2.25%.
